Source: ChEMBL document CHEMBL3046295, “Quantitative structure activity relationship (QSAR) studies of a series of 2,5-disubstituted-1,3,4-oxadiazole derivatives as biologically potential compounds” (2011)
≈ marks a conversion by molar mass, not a printed value. Blank lines part the entries; values can stand above or below the compound they belong to.

Legend:
[1] = system: Escherichia coli; assay: Antibacterial activity against Escherichia coli; format: functional; conditions: for MIC: Escherichia coli
[2] = system: Staphylococcus aureus; assay: Antibacterial activity against Staphylococcus aureus; format: functional; conditions: for MIC: Staphylococcus aureus

MIC [1]: 100 µg/mL (≈ 288 µM)
MIC [2]: 135 µg/mL (≈ 389 µM)
SMILES: O=C(CSc1nnc(-c2cccnc2)o1)Nc1ccc(Cl)cc1
-logMIC [1]: 6.5403
-logMIC [2]: 6.41

MIC [1]: 180 µg/mL (≈ 591 µM)
MIC [2]: 155 µg/mL (≈ 509 µM)
SMILES: O=C(CSc1nnc(-c2cccnc2)o1)N1CCCCC1
-logMIC [1]: 6.229

MIC [1]: 150 µg/mL (≈ 438 µM)
MIC [2]: 140 µg/mL (≈ 409 µM)
SMILES: COc1ccc(NC(=O)CSc2nnc(-c3cccnc3)o2)cc1
-logMIC [1]: 6.3579
-logMIC [2]: 6.3879

MIC [1]: 90 µg/mL (≈ 230 µM)
MIC [2]: 125 µg/mL (≈ 319 µM)
SMILES: O=C(CSc1nnc(-c2cccnc2)o1)Nc1ccc(Br)cc1
-logMIC [1]: 6.6379
-logMIC [2]: 6.4953

MIC [1]: 145 µg/mL (≈ 406 µM)
MIC [2]: 150 µg/mL (≈ 420 µM)
SMILES: O=C(CSc1nnc(-c2cccnc2)o1)Nc1ccc([N+](=O)[O-])cc1
-logMIC [1]: 6.3913
-logMIC [2]: 6.3766

MIC [1]: 125 µg/mL (≈ 449 µM)
MIC [2]: 100 µg/mL (≈ 359 µM)
SMILES: CCCNC(=O)CSc1nnc(-c2cccnc2)o1
-logMIC [1]: 6.3471
-logMIC [2]: 6.444

MIC [1]: 110 µg/mL (≈ 359 µM)
MIC [2]: 120 µg/mL (≈ 392 µM)
SMILES: O=C(CSc1nnc(-c2cccnc2)o1)N1CCOCC1
-logMIC [1]: 6.4443
-logMIC [2]: 6.4065

MIC [1]: 115 µg/mL (≈ 393 µM)
MIC [2]: 95 µg/mL (≈ 325 µM)
SMILES: CCCCNC(=O)CSc1nnc(-c2cccnc2)o1
-logMIC [1]: 6.4047
-logMIC [2]: 6.4877

MIC [1]: 150 µg/mL (≈ 436 µM)
MIC [2]: 170 µg/mL (≈ 494 µM)
SMILES: O=C(CCSc1nnc(-c2cccnc2)o1)Nc1ccc(F)cc1
-logMIC [1]: 6.3605
-logMIC [2]: 6.3061

MIC [1]: 100 µg/mL (≈ 281 µM)
MIC [2]: 140 µg/mL (≈ 393 µM)
SMILES: COc1ccc(NC(=O)CCSc2nnc(-c3cccnc3)o2)cc1
-logMIC [1]: 6.5514
-logMIC [2]: 6.4053

MIC [1]: 120 µg/mL (≈ 323 µM)
MIC [2]: 100 µg/mL (≈ 269 µM)
SMILES: O=C(CCSc1nnc(-c2cccnc2)o1)Nc1ccc([N+](=O)[O-])cc1
-logMIC [1]: 6.4902
-logMIC [2]: 6.5694

MIC [1]: 165 µg/mL (≈ 407 µM)
MIC [2]: 150 µg/mL (≈ 370 µM)
SMILES: O=C(CCSc1nnc(-c2cccnc2)o1)Nc1ccc(Br)cc1

MIC [1]: 80 µg/mL (≈ 222 µM)
MIC [2]: 100 µg/mL (≈ 277 µM)
SMILES: O=C(CCSc1nnc(-c2cccnc2)o1)Nc1ccc(Cl)cc1
-logMIC [1]: 6.2349
-logMIC [2]: 6.5575

MIC [1]: 170 µg/mL (≈ 430 µM)
MIC [2]: 95 µg/mL (≈ 240 µM)
SMILES: O=C(CCSc1nnc(-c2cccnc2)o1)Nc1c(Cl)cccc1Cl
-logMIC [1]: 6.4638
-logMIC [2]: 6.4877

MIC [1]: 110 µg/mL (≈ 376 µM)
MIC [2]: 115 µg/mL (≈ 393 µM)
SMILES: CCCNC(=O)CCSc1nnc(-c2cccnc2)o1
-logMIC [1]: 6.4069
-logMIC [2]: 6.4445

MIC [1]: 125 µg/mL (≈ 408 µM)
MIC [2]: 120 µg/mL (≈ 392 µM)
SMILES: CCCCNC(=O)CCSc1nnc(-c2cccnc2)o1
-logMIC [2]: 6.4246

MIC [1]: 130 µg/mL (≈ 406 µM)
MIC [2]: 140 µg/mL (≈ 437 µM)
SMILES: O=C(CCSc1nnc(-c2cccnc2)o1)N1CCOCC1
-logMIC [1]: 6.3718
-logMIC [2]: 6.3396

MIC [1]: 125 µg/mL (≈ 378 µM)
MIC [2]: 130 µg/mL (≈ 394 µM)
SMILES: O=C(CSc1nnc(-c2cccnc2)o1)Nc1ccc(F)cc1
-logMIC [1]: 6.4216
-logMIC [2]: 6.4046

Second part, the compound before the results:

SMILES: O=C(CSc1nnc(Cn2nnc3ccccc32)o1)Nc1ccc(Cl)cc1
-logMIC [1]: 6.6031
MIC [1]: 100 µg/mL (≈ 249 µM)
-logMIC [2]: 6.6737
MIC [2]: 85 µg/mL (≈ 212 µM)

SMILES: COc1ccc(NC(=O)CSc2nnc(Cn3nnc4ccccc43)o2)cc1
-logMIC [1]: 6.5185
MIC [1]: 120 µg/mL (≈ 303 µM)
-logMIC [2]: 6.5008
MIC [2]: 125 µg/mL (≈ 315 µM)

SMILES: O=C(CSc1nnc(Cn2nnc3ccccc32)o1)Nc1ccc(Br)cc1
-logMIC [1]: 6.7733
MIC [1]: 75 µg/mL (≈ 168 µM)
-logMIC [2]: 6.607
MIC [2]: 110 µg/mL (≈ 247 µM)

SMILES: O=C(CSc1nnc(Cn2nnc3ccccc32)o1)Nc1c(Cl)cccc1Cl
-logMIC [1]: 6.7354
MIC [1]: 80 µg/mL (≈ 184 µM)
-logMIC [2]: 6.5778
MIC [2]: 115 µg/mL (≈ 264 µM)

SMILES: Cc1cccc(C)c1NC(=O)CSc1nnc(Cn2nnc3ccccc32)o1
-logMIC [1]: 6.5163
MIC [1]: 120 µg/mL (≈ 304 µM)
-logMIC [2]: 6.4816
MIC [2]: 130 µg/mL (≈ 330 µM)

SMILES: O=C(CSc1nnc(Cn2nnc3ccccc32)o1)Nc1ccc(Cl)c(Cl)c1
-logMIC [1]: 6.6842
MIC [1]: 90 µg/mL (≈ 207 µM)
-logMIC [2]: 6.5416
MIC [2]: 125 µg/mL (≈ 287 µM)

SMILES: O=C(CCSc1nnc(Cn2nnc3ccccc32)o1)Nc1ccc(Cl)cc1
-logMIC [1]: 6.5378
MIC [1]: 120 µg/mL (≈ 289 µM)
-logMIC [2]: 6.5378
MIC [2]: 120 µg/mL (≈ 289 µM)

SMILES: Cc1ccc(NC(=O)CCSc2nnc(Cn3nnc4ccccc43)o2)cc1
-logMIC [1]: 6.4986
MIC [1]: 125 µg/mL (≈ 317 µM)
-logMIC [2]: 6.5541
MIC [2]: 110 µg/mL (≈ 279 µM)

SMILES: O=C(CCSc1nnc(Cn2nnc3ccccc32)o1)Nc1ccc([N+](=O)[O-])cc1
-logMIC [1]: 6.587
MIC [1]: 110 µg/mL (≈ 259 µM)
-logMIC [2]: 6.5677
MIC [2]: 115 µg/mL (≈ 270 µM)

SMILES: O=C(CCSc1nnc(Cn2nnc3ccccc32)o1)Nc1ccc(F)cc1
-logMIC [1]: 6.6968
MIC [1]: 80 µg/mL (≈ 201 µM)
-logMIC [2]: 6.5787
MIC [2]: 105 µg/mL (≈ 264 µM)

SMILES: COc1ccc(NC(=O)CCSc2nnc(Cn3nnc4ccccc43)o2)cc1
-logMIC [1]: 6.6128
MIC [1]: 100 µg/mL (≈ 244 µM)
-logMIC [2]: 6.6128
MIC [2]: 100 µg/mL (≈ 244 µM)

SMILES: O=C(CCSc1nnc(Cn2nnc3ccccc32)o1)Nc1ccc(Br)cc1
-logMIC [1]: 6.6618
MIC [1]: 100 µg/mL (≈ 218 µM)
-logMIC [2]: 6.7868
MIC [2]: 75 µg/mL (≈ 163 µM)

SMILES: O=C(CCSc1nnc(Cn2nnc3ccccc32)o1)Nc1c(Cl)cccc1Cl
-logMIC [1]: 6.698
MIC [1]: 90 µg/mL (≈ 200 µM)
-logMIC [2]: 6.5731
MIC [2]: 120 µg/mL (≈ 267 µM)

SMILES: Cc1cccc(C)c1NC(=O)CCSc1nnc(Cn2nnc3ccccc32)o1
-logMIC [1]: 6.6107
MIC [1]: 100 µg/mL (≈ 245 µM)
-logMIC [2]: 6.5693
MIC [2]: 110 µg/mL (≈ 269 µM)

SMILES: O=C(CCSc1nnc(Cn2nnc3ccccc32)o1)Nc1ccc(Cl)c(Cl)c1
-logMIC [1]: 6.5731
MIC [1]: 120 µg/mL (≈ 267 µM)
-logMIC [2]: 6.6109
MIC [2]: 110 µg/mL (≈ 245 µM)

SMILES: Cc1ccc(NC(=O)CSc2nnc(Cn3nnc4ccccc43)o2)cc1
-logMIC [1]: 6.5384
MIC [1]: 110 µg/mL (≈ 289 µM)
-logMIC [2]: 6.5006
MIC [2]: 120 µg/mL (≈ 315 µM)

SMILES: O=C(CSc1nnc(Cn2nnc3ccccc32)o1)Nc1ccc([N+](=O)[O-])cc1
-logMIC [1]: 6.5531
MIC [1]: 115 µg/mL (≈ 280 µM)
-logMIC [2]: 6.4677
MIC [2]: 140 µg/mL (≈ 340 µM)

SMILES: O=C(CSc1nnc(Cn2nnc3ccccc32)o1)Nc1ccc(F)cc1
-logMIC [1]: 6.6549
MIC [1]: 85 µg/mL (≈ 221 µM)
-logMIC [2]: 6.5843
MIC [2]: 100 µg/mL (≈ 260 µM)
